One experiment deals with human LTA4 hydrolase (Homo sapiens (Human), UniProt P09960). Briefly: LTA4H Enzyme assay (peptidase, Arg-AMC cleavage). In kind it is biochemical. The conditions noted are these: LTA4H enzyme 1 nM, Arg-AMC substrate 50 μM, room temperature 1 h, fluorescence. How it is done: The compounds of the invention are assessed for the ability to interact with human LTA4 hydrolase in an enzymatic assay that measures the ability of the enzyme to cleave the peptide bond of arginyl-aminomethylcoumarin (Arg-AMC). LTA4H Enzyme (1 nM final), Arg-AMC substrate (50 μM final), and compound are combined in a reaction buffer (50 mM Tris-HCl (pH 7.5), 100 mM KCl, 0.5% bovine serum albumin) at room temperature for 1 h. The formation of product is assessed by measuring the fluorescence of aminomethylcoumarin product (excitation wavelength 380 nm/emission wavelength 460 nm).
human LTA4 hydrolase, sequence (P09960 whole entry): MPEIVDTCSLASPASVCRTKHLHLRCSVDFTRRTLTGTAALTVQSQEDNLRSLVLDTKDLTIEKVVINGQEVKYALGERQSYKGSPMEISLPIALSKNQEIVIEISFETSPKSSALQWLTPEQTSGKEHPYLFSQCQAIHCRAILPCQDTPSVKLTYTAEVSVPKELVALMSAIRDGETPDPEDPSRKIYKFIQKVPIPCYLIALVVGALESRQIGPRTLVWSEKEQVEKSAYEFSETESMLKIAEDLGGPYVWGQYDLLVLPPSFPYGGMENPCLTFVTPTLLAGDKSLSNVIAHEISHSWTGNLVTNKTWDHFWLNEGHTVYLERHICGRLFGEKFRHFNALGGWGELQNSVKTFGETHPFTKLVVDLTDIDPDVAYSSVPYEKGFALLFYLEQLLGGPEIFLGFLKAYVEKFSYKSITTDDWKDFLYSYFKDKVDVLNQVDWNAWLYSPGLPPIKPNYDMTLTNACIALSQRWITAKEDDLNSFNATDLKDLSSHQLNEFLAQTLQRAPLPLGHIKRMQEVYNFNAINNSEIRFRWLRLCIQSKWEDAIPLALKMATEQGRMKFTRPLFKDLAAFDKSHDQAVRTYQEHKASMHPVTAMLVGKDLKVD

Experiment [1] has as its system synthesis of LTB4 in human whole blood. As to the kind of experiment: LTB4 production inhibition assay in human whole blood (HWB). Format: cell-based. The conditions noted are these: heparinized human whole blood, calcimycin 20 μM stimulated, plasma LTB4 by HTRF. How it is done: The compounds of the invention are additionally tested in a human whole blood (HWB) assay to determine their ability to inhibit the synthesis of LTB4 in a cellular system. Compounds are combined with heparinized human whole blood and incubated for 15 minutes at 37° C. Calcimycin (20 μM final, prepared in phosphate-buffered saline, pH 7.4) is then added and the mixture is incubated for another 30 minutes at 37° C. The samples are centrifuged for 5 min at low speed (1500×g) and the plasma layer is removed. Plasma LTB4 concentrations are then measured using an antibody-based homogenous time-resolved fluorescence method (CisBio, Bedford, Mass.).
In general terms: TR-FRET usually uses a lanthanide donor and a delayed reading to cut background.

Take `O=C(CO)N1CCN(Cc2cnc3cc(Oc4ccc(-c5ccn[nH]5)cn4)ccc3c2)CC1` [Example 1, 2-Hydroxy-1-(4-{7-[5-(2H-pyrazol-3-yl)-pyridin-2-yloxy]-quinolin-3-ylmethyl}-piperazin-1-yl)-ethanone]: the IC50 (commonly the concentration at which inhibition is half-maximal) at human LTA4 hydrolase turned out to be 0.69 nM; in experiment [1], 160 nM.
For `CC(=O)N1CCN(Cc2cnc3cc(Oc4ccc(-c5ccn[nH]5)cn4)ccc3c2)CC1` [Example 2, 1-(4-{7-[5-(2H-Pyrazol-3-yl)-pyridin-2-yloxy]-quinolin-3-ylmethyl}-piperazin-1-yl)-ethanone], the IC50 came to 0.6 nM at human LTA4 hydrolase and 150 nM in experiment [1].
Taken in the same sequence, the figures for `OC1CN(Cc2cnc3cc(Oc4ccc(-c5ccn[nH]5)cn4)ccc3c2)C1` [Example 3, 1-{7-[5-(2H-Pyrazol-3-yl)-pyridin-2-yloxy]-quinolin-3-ylmethyl}-azetidin-3-ol] were 4 nM and 430 nM.
For `COCC(=O)N1CCN(Cc2cnc3cc(Oc4ccc(-c5ccn[nH]5)cn4)ccc3c2)CC1` [Example 4, 2-Methoxy-1-(4-{7-[5-(2H-pyrazol-3-yl)-pyridin-2-yloxy]-quinolin-3-ylmethyl}-piperazin-1-yl)-ethanone], in that order: 1.4 nM and 170 nM.
Take `O=C1[C@@H](O)CCN1C1CCN(Cc2cnc3cc(Oc4ccc(-c5ccn[nH]5)cn4)ccc3c2)CC1` [Example 5, (S)-3-Hydroxy-1-(1-{7-[5-(2H-pyrazol-3-yl)-pyridin-2-yloxy]-quinolin-3-ylmethyl}-piperidin-4-yl)-pyrrolidin-2-one]: the half-maximal inhibitory concentration (IC50) stood at 2.6 nM at human LTA4 hydrolase and 370 nM in experiment [1].
As for `O=C1OCCN1C1CCN(Cc2cnc3cc(Oc4ccc(-c5ccn[nH]5)cn4)ccc3c2)CC1` [Example 6, 3-(1-{7-[5-(2H-Pyrazol-3-yl)-pyridin-2-yloxy]-quinolin-3-ylmethyl}-piperidin-4-yl)-oxazolidin-2-one], the half-inhibitory concentration (IC50) at human LTA4 hydrolase was found to be 1.9 nM; in experiment [1], 270 nM.
For `OC1CCN(Cc2cnc3cc(Oc4ccc(-c5ccn[nH]5)cn4)ccc3c2)CC1` [Example 7, l-{7-[5-(2H-Pyrazol-3-yl)-pyridin-2-yloxy]-quinolin-3-ylmethyl}-piperidin-4-ol], in that order: 3.7 nM and 500 nM.
Regarding `CC1(O)CN(Cc2cnc3cc(Oc4ccc(-c5ccn[nH]5)cn4)ccc3c2)C1` [Example 8, 3-Methyl-1-{7-[5-(2H-pyrazol-3-yl)-pyridin-2-yloxy]-quinolin-3-ylmethyl}-azetidin-3-ol], the IC50 against human LTA4 hydrolase was 2.4 nM; in experiment [1] it was 410 nM.
Taken in the same sequence, the figures for `CN(Cc1cnc2cc(Oc3ccc(-c4ccn[nH]4)cn3)ccc2c1)[C@@H]1CCN(C(=O)CO)C1` [Example 9, 2-Hydroxy-1-[(R)-3-(methyl-{7-[5-(2H-pyrazol-3-yl)-pyridin-2-yloxy]-quinolin-3-ylmethyl}-amino)-pyrrolidin-1-yl]-ethanone] were 0.88 nM and 150 nM.
For `CN(Cc1cnc2cc(Oc3ccc(-c4ccn[nH]4)cn3)ccc2c1)[C@H]1CCN(C(=O)CO)C1` [Example 10, 2-Hydroxy-1-[(S)-3-(methyl-{7-[5-(2H-pyrazol-3-yl)-pyridin-2-yloxy]-quinolin-3-ylmethyl}-amino)-pyrrolidin-1-yl]-ethanone], in that order: 1.3 nM and 140 nM.
For `CN(C(=O)CO)[C@H]1CCN(Cc2cnc3cc(Oc4ccc(-c5ccn[nH]5)cn4)ccc3c2)C1` [Example 11, 2-Hydroxy-N-methyl-N-((S)-1-{7-[5-(2H-pyrazol-3-yl)-pyridin-2-yloxy]-quinolin-3-ylmethyl}-pyrrolidin-3-yl)-acetamide], in that order: 2.6 nM and 250 nM.
Turning to `CN(C(=O)CO)[C@@H]1CCN(Cc2cnc3cc(Oc4ccc(-c5ccn[nH]5)cn4)ccc3c2)C1` [Example 12, 2-Hydroxy-N-methyl-N-((R)-1-{7-[5-(2H-pyrazol-3-yl)-pyridin-2-yloxy]-quinolin-3-ylmethyl}-pyrrolidin-3-yl)-acetamide], the half-maximal inhibitory concentration (IC50) was determined as 1.8 nM against human LTA4 hydrolase and 180 nM in experiment [1].
Taken in the same sequence, the figures for `O[C@H]1CCN(Cc2cnc3cc(Oc4ccc(-c5ccn[nH]5)cn4)ccc3c2)C1` [Example 13, (S)-1-{7-[5-(2H-Pyrazol-3-yl)-pyridin-2-yloxy]-quinolin-3-ylmethyl)-pyrrolidin-3-ol] were 2.5 nM and 220 nM.
For `CCC(=O)N1CCN(Cc2cnc3cc(Oc4ccc(-c5ccn[nH]5)cn4)ccc3c2)CC1` [Example 14, 1-(4-{7-[5-(2H-Pyrazol-3-yl)-pyridin-2-yloxy]-quinolin-3-ylmethyl}-piperazin-1-yl)-propan-1-one], in that order: 0.44 nM and 86 nM.
For `CN(C(=O)CO)C1CCN(Cc2cnc3cc(Oc4ccc(-c5ccn[nH]5)cn4)ccc3c2)CC1` [Example 15, 2-Hydroxy-N-methyl-N-(1-{7-[5-(2H-pyrazol-3-yl)-pyridin-2-yloxy]-quinolin-3-ylmethyl}-piperidin-4-yl)-acetamide], in that order: 3.5 nM and 380 nM.
Regarding `CC(=O)N1CC(CN(C)Cc2cnc3cc(Oc4ccc(-c5ccn[nH]5)cn4)ccc3c2)C1` [Example 16, 1-{3-[(Methyl-{7-[5-(2H-pyrazol-3-yl)-pyridin-2-yloxy]-quinolin-3-ylmethyl}-amino)-methyl]-azetidin-1-yl}-ethanone], the IC50 stood at 1.1 nM at human LTA4 hydrolase and 110 nM in experiment [1].
Taken in the same sequence, the figures for `O[C@@H]1CCN(Cc2cnc3cc(Oc4ccc(-c5ccn[nH]5)cn4)ccc3c2)C1` [Example 17, (R)-1-{7-[5-(2H-Pyrazol-3-yl)-pyridin-2-yloxy]-quinolin-3-ylmethyl}-pyrrolidin-3-ol] were 1.7 nM and 230 nM.
For `C[C@H](O)C(=O)N1CCN(Cc2cnc3cc(Oc4ccc(-c5ccn[nH]5)cn4)ccc3c2)CC1` [Example 18], in that order: 1.1 nM and 180 nM.
Taken in the same sequence, the figures for `CN(C)C(=O)C1CCN(Cc2cnc3cc(Oc4ccc(-c5ccn[nH]5)cn4)ccc3c2)CC1` [Example 19, 1-{7-[5-(2H-Pyrazol-3-yl)-pyridin-2-yloxy]-quinolin-3-ylmethyl}-piperidine-4-carboxylic acid dimethylamide] were 1.5 nM and 480 nM.
For the compound `CC(C)(O)C(=O)N1CCN(Cc2cnc3cc(Oc4ccc(-c5ccn[nH]5)cn4)ccc3c2)CC1` [Example 20, 2-Hydroxy-2-methyl-1-(4-{7-[5-(2H-pyrazol-3-yl)-pyridin-2-yloxy]-quinolin-3-ylmethyl)-piperazin-1-yl)-propan-1-one], the half-maximal inhibitory concentration (IC50) at human LTA4 hydrolase was found to be 1.6 nM; in experiment [1], 230 nM.
For `CC(C)(C)C(=O)N1CCN(Cc2cnc3cc(Oc4ccc(-c5ccn[nH]5)cn4)ccc3c2)CC1` [Example 21, 2,2-Dimethyl-1-(4-{7-[5-(2H-pyrazol-3-yl)-pyridin-2-yloxy]-quinolin-3-ylmethyl}-piperazin-1-yl)-propan-1-one], the IC50 on human LTA4 hydrolase came out at 1.7 nM; in experiment [1] it was 740 nM.
Taken in the same sequence, the figures for `O=C(C1CC1)N1CCN(Cc2cnc3cc(Oc4ccc(-c5ccn[nH]5)cn4)ccc3c2)CC1` [Example 22, Cyclopropyl-(4-{7-[5-(2H-pyrazol-3-yl)-pyridin-2-yloxy]-quinolin-3-ylmethyl}-piperazin-1-yl)-methanone] were 0.93 nM and 230 nM.
Taken in the same sequence, the figures for `CC(C)C(=O)N1CCN(Cc2cnc3cc(Oc4ccc(-c5ccn[nH]5)cn4)ccc3c2)CC1` [Example 23] were 0.54 nM and 160 nM.

Source of the values: patent US9303018B2, “Inhibitors of leukotriene production” (Boehringer Ingelheim International GmbH, priority 2013, dated 2016).
